Measurements from patent publication US7897369B2, “Isoprenoid wax ester synthases, isoprenoid acyl CoA-synthetases, and uses thereof” (Regents of the University of Minnesota, priority 2007, dated 2011).

Tests used:
Format in all cases: biochemical, Marinobacter hydrocarbonoclasticus DSM 8798
WS2 [1] = molecular target: T1, WS2 (Marinobacter nauticus, UniProt A3RE51); experiment: Coupled enzyme assay, WS substrate profile (TLC); parameters: key to WE formation (spot intensity of wax ester products on TLC), WS2, C16 / WE formation (spot intensity of wax ester products on TLC), WS2, Phytol / WE formation (spot intensity of wax ester products on TLC), WS2, Farnesol / WE formation (spot intensity of wax ester products on TLC), WS2, C10 / WE formation (spot intensity of wax ester products on TLC), WS2, C12 / WE formation (spot intensity of wax ester products on TLC), WS2, C14: no activity (−); ranging from no activity (−) to most active (+++); ranging from no activity (−) to most active (+++); most active (+++); conditions: 12 h at 37° C., each substrate 250 μM; for WE formation (spot intensity of wax ester products on TLC), WS2, Farnesol: alcohol farnesol; for WE formation (spot intensity of wax ester products on TLC), WS2, Phytol: alcohol phytol; for WE formation (spot intensity of wax ester products on TLC), WS2, C10: fatty alcohol C10; for WE formation (spot intensity of wax ester products on TLC), WS2, C12: fatty alcohol C12; for WE formation (spot intensity of wax ester products on TLC), WS2, C14: fatty alcohol C14; for WE formation (spot intensity of wax ester products on TLC), WS2, C16: fatty alcohol C16
T1 sequence (A3RE51 entry or part of it): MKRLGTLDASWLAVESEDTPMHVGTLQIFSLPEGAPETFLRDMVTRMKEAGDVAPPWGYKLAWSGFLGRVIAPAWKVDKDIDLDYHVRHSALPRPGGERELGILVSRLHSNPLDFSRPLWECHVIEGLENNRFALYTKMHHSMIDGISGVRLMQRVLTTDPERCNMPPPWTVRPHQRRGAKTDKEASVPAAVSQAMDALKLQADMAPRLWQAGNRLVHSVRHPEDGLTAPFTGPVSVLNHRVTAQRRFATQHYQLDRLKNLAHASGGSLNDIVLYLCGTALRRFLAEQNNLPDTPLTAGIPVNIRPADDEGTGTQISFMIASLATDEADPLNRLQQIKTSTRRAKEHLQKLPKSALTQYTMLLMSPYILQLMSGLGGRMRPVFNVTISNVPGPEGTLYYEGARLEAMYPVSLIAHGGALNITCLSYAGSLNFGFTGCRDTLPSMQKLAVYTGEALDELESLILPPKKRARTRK
Description: (§1) Stock solutions of various substrates were prepared in 50 mM Tris-HCl buffer (pH 8) containing 1% gum arabic, 12.5 μg bovine serum albumin ml^−1, 0.1% taurocholate, and either 100 mM fatty acid, isoprenoid acid, fatty alcohol, or isoprenoid alcohol. Stock solutions were sonicated to disperse the substrates. Substrate profiles of the three WS were tested using coupled enzyme in vitro reactions in which the CoA synthetases Acs1 and Acs2 are added to synthesize the CoA-activated fatty acid phytanic acid substrates from corresponding acid precursors for the WS reactions. Assays were carried out in 500-μl reactions containing in 50 mM Tris-HCl buffer (pH 8.0), 12.5 μl of each acid, and alcohol substrate stock solution (final concentrations of each substrate of 250 μM), 10 mM MgCl2, 10 mM CoASH, 10 mM ATP, 5 mM TCEP, 0.1 U of inorganic pyrophosphatase, 0.25 μg of Acs1 and Acs2 CoA synthetase, and 0.5 μg of WS to be tested. Assays were incubated at 37° C. overnight before thin-layer chromatography (TLC) analysis of the reaction products.
(§2) In vitro WS assay samples were extracted with 500 μl of chloroformmethanol (1:1 [vol/vol]), and extracts were analyzed by TLC with Whatman normal phase silica gel 60 plates and developed using hexane-diethyl ether-acetic acid (90:10:1 [vol/vol/vol]). TLC plates were stained with either iodine vapor or anisaldehyde solution as described earlier (Jork et al., 1990. Thin-layer chromatography reagents and detection methods, vol. 1a. Physical and chemical detection methods: fundamentals, reagents. VHC, Weinheim, Germany). Palmitoyl palmitate and triolein were used as WE and TAG reference compounds, respectively.

WS1 = experiment: Coupled enzyme assay, WS substrate profile (TLC); parameters: key to WE formation (spot intensity of wax ester products on TLC), WS1, C10 / WE formation (spot intensity of wax ester products on TLC), WS1, C12 / WE formation (spot intensity of wax ester products on TLC), WS1, C14 / WE formation (spot intensity of wax ester products on TLC), WS1, C16 / WE formation (spot intensity of wax ester products on TLC), WS1, Phytol / WE formation (spot intensity of wax ester products on TLC), WS1, Farnesol: no activity (−); ranging from no activity (−) to most active (+++); ranging from no activity (−) to most active (+++); most active (+++); conditions: 12 h at 37° C., each substrate 250 μM; for WE formation (spot intensity of wax ester products on TLC), WS1, Farnesol: alcohol farnesol; for WE formation (spot intensity of wax ester products on TLC), WS1, Phytol: alcohol phytol; for WE formation (spot intensity of wax ester products on TLC), WS1, C10: fatty alcohol C10; for WE formation (spot intensity of wax ester products on TLC), WS1, C12: fatty alcohol C12; for WE formation (spot intensity of wax ester products on TLC), WS1, C14: fatty alcohol C14; for WE formation (spot intensity of wax ester products on TLC), WS1, C16: fatty alcohol C16
Description: as §1, §2

WS2 [2] = molecular target: T1, WS2; experiment: Kinetic WS assay, spectrophotometric (CoA release, DTNB); conditions: both substrates 1 mM; for Fatty/isoprenoid alcohol specificity of WS2: palmitoyl-CoA as acyl donor; for Acyl-CoA specificity of WS2: hexadecanol as acyl acceptor
Description: Assay reactions were preincubated at 37° C. for 5 min before the reactions were started by the addition of enzyme. Heat-denatured enzyme (99° C. for 15 min) was used as a negative control.
Acyl-CoA and fatty/isoprenoid alcohol specificity of WS2 was determined in the same manner as described for the kinetic WS assay with assumed saturating conditions containing both the fatty/isoprenoid alcohol and acyl-CoA substrates at a concentration of 1 mM. Acyl-CoA specificity was measured with hexadecanol as acyl acceptor, whereas palmitoyl-CoA was used as acyl donor to determine alcohol specificity.
A spectrophotometric assay was developed to determine the kinetic properties of WS1 and WS2. […] The specific activities of WS1, WS2, and Acinetobacter WS/DGAT were measured with palmitoyl-CoA and hexadecanol, palmitoyl-CoA and phytol, and phytanoyl-CoA and phytol. Phytanoyl-CoA for these assays was enzymatically synthesized from phytanic acid and CoA using the above-characterized isoprenoid/acyl-CoA synthetase Acs2.

Compound	WE formation (spot intensity of wax ester products on TLC), WS2, Farnesol (WS2 [1])	WE formation (spot intensity of wax ester products on TLC), WS2, Phytol (WS2 [1])	WE formation (spot intensity of wax ester products on TLC), WS2, C10 (WS2 [1])	WE formation (spot intensity of wax ester products on TLC), WS2, C12 (WS2 [1])	WE formation (spot intensity of wax ester products on TLC), WS2, C14 (WS2 [1])	WE formation (spot intensity of wax ester products on TLC), WS2, C16 (WS2 [1])	WE formation (spot intensity of wax ester products on TLC), WS1, Farnesol (WS1)	WE formation (spot intensity of wax ester products on TLC), WS1, Phytol (WS1)	WE formation (spot intensity of wax ester products on TLC), WS1, C10 (WS1)	WE formation (spot intensity of wax ester products on TLC), WS1, C12 (WS1)	WE formation (spot intensity of wax ester products on TLC), WS1, C14 (WS1)	WE formation (spot intensity of wax ester products on TLC), WS1, C16 (WS1)	Acyl-CoA specificity of WS2 (WS2 [2])	Fatty/isoprenoid alcohol specificity of WS2 (WS2 [2])
CCCCCC/C=C\CCCCCCCC(=O)O [C16Δcis9]	++	++	++	++	+++	+++	++	+++	+	++	++	++		
CC/C=C\C/C=C\C/C=C\CCCCCCCC(=O)O [C18Δcis9, 12, 15]	−	+	+	+	+	+	+	−	−	+	+	−		
CCCCCCCCCCO [Decanol]														more readily taken up for WE synthesis than the equivalent-chain-length acyl-CoA carbon chain
CCCCCCCCCCCCCCCCCCCC(=O)SCCNC(=O)CCNC(=O)[C@H](O)C(C)(C)COP(=O)(O)OP(=O)(O)OC[C@H]1O[C@@H](n2cnc3c(N)ncnc32)[C@H](O)[C@@H]1OP(=O)(O)O [arachidoyl-CoA, arachidoyl-CoA (C20:0)]													readily accepted	
CCCCCCCCCCCCO [dodecanol]														more readily taken up for WE synthesis than the equivalent-chain-length acyl-CoA carbon chain
CCCCCCCCCCCC(=O)SCCNC(=O)CCNC(=O)[C@H](O)C(C)(C)COP(=O)(O)OP(=O)(O)OC[C@H]1O[C@@H](n2cnc3c(N)ncnc32)[C@H](O)[C@@H]1OP(=O)(O)O [lauroyl-CoA, lauroyl-CoA (C12)]													not accepted at all	
CC/C=C\C/C=C\C/C=C\CCCCCCCC(=O)SCCNC(=O)CCNC(=O)[C@H](O)C(C)(C)COP(=O)(O)OP(=O)(O)OC[C@H]1O[C@@H](n2cnc3c(N)ncnc32)[C@H](O)[C@@H]1OP(=O)(O)O [linolenoyl-CoA, linolenoyl-CoA (C18:3)]													readily accepted	
CCCCCCCCCCCCCC(=O)SCCNC(=O)CCNC(=O)[C@H](O)C(C)(C)COP(=O)(O)OP(=O)(O)OC[C@H]1O[C@@H](n2cnc3c(N)ncnc32)[C@H](O)[C@@H]1OP(=O)(O)O [myristoyl-CoA, myristoyl-CoA (C14:0)]													poorly converted	
CCCCCCCCCCCCCCCCCC(=O)SCCNC(=O)CCNC(=O)[C@H](O)C(C)(C)COP(=O)(O)OP(=O)(O)OC[C@H]1O[C@@H](n2cnc3c(N)ncnc32)[C@H](O)[C@@H]1OP(=O)(O)O [stearoyl-CoA, stearoyl-CoA (C18:0)]													readily accepted	

The next lines start with results.

WE formation (spot intensity of wax ester products on TLC), WS2, Farnesol (WS2 [1])	WE formation (spot intensity of wax ester products on TLC), WS2, Phytol (WS2 [1])	WE formation (spot intensity of wax ester products on TLC), WS2, C10 (WS2 [1])	WE formation (spot intensity of wax ester products on TLC), WS2, C12 (WS2 [1])	WE formation (spot intensity of wax ester products on TLC), WS2, C14 (WS2 [1])	WE formation (spot intensity of wax ester products on TLC), WS2, C16 (WS2 [1])	WE formation (spot intensity of wax ester products on TLC), WS1, Farnesol (WS1)	WE formation (spot intensity of wax ester products on TLC), WS1, Phytol (WS1)	WE formation (spot intensity of wax ester products on TLC), WS1, C10 (WS1)	WE formation (spot intensity of wax ester products on TLC), WS1, C12 (WS1)	WE formation (spot intensity of wax ester products on TLC), WS1, C14 (WS1)	WE formation (spot intensity of wax ester products on TLC), WS1, C16 (WS1)	Acyl-CoA specificity of WS2 (WS2 [2])	Compound	Fatty/isoprenoid alcohol specificity of WS2 (WS2 [2])
+	+	+	+	−	+	+++	−	+	+	−	+		CCCCCCCCCC(=O)O [C10]	
++	+	+	+	+	+	+++	−	−	+	+	+		CCCCCCCCCCCC(=O)O [C12]	
++	+	++	+	++	+	++	+	−	−	++	+		CCCCCCCCCCCCCC(=O)O [C14]	
++	+	+	+	+	+	++	++	++	+	++	+		CCCCCCCCCCCCCCCCCC(=O)O [C18]	
+	+	−	−	+	+	++	++	+	+	+	+		CCCCCCCCCCCCCCCCCCCC(=O)O [C20]	
